Experiments:
Nonspecific binding [1] = format: in vitro ADME; conditions: human, incubation mixture with human kidney microsomes
Nonspecific binding [2] = format: in vitro ADME; conditions: human
UGT2B7 = biological target: T1, UGT2B7 (Homo sapiens, UniProt P16662); format: in vitro ADME; conditions: rUGT2B7 microsomes
T1 sequence (P16662 24-529): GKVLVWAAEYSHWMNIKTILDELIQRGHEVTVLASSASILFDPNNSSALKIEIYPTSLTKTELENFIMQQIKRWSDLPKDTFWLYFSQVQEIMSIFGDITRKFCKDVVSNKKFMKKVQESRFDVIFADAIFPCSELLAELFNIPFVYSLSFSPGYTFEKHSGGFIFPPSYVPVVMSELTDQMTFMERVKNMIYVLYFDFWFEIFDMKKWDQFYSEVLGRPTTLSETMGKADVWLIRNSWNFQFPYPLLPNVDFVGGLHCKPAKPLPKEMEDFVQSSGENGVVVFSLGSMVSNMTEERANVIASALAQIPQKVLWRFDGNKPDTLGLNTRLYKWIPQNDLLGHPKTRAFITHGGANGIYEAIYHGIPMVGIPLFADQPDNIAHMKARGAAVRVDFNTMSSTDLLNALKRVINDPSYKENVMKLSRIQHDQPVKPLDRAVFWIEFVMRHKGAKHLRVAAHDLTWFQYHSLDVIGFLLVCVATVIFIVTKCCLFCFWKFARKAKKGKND

Nonspecific binding [3] = format: in vitro ADME; conditions: human, incubation mixture with human liver microsomes
[4] = biological target: T2, UGT1A9 in human kidney microsomes (Homo sapiens, UniProt O60656); assay: Inhibition of acetaminophen glucuronidation; conditions: HKM
T2 sequence (O60656 26-530): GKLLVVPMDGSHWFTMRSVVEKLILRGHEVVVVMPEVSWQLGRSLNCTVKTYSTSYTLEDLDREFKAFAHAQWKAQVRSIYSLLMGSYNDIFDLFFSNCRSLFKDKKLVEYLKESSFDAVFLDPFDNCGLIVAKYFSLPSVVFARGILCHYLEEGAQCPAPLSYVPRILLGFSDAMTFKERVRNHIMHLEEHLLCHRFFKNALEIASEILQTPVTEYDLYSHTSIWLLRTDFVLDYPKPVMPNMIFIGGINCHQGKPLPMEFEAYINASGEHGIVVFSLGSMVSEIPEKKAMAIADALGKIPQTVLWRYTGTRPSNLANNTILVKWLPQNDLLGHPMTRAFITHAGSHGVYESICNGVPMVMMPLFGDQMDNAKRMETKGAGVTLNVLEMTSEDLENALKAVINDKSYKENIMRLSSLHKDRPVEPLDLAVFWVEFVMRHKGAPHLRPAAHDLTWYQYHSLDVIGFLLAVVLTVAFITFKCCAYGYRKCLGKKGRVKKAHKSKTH

UGT2B10 = biological target: T3, UGT2B10 (Homo sapiens, UniProt P36537); assay: Screening: inhibition of nicotine glucuronidation in rUGT2B10 microsomes; format: in vitro ADME; conditions: 100 µM
T3 sequence (P36537 24-528): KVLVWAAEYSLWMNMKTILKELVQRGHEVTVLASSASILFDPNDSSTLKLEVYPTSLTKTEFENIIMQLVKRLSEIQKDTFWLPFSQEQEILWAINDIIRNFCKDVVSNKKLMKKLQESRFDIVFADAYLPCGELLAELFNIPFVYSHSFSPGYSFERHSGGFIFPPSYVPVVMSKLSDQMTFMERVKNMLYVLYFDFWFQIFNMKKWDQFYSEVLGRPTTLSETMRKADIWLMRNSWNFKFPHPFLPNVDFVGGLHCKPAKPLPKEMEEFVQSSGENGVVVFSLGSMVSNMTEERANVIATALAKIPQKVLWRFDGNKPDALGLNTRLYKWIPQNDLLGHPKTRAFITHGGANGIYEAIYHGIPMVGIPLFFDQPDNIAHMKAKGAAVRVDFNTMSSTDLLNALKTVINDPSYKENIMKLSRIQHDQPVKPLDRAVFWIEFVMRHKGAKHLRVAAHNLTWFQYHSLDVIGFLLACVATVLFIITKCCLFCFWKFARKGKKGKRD

[5] = biological target: T4, UGT1A6 in human kidney microsomes (Homo sapiens, UniProt P19224); assay: Inhibition of serotonin glucuronidation; conditions: HKM
T4 sequence (P19224 27-532): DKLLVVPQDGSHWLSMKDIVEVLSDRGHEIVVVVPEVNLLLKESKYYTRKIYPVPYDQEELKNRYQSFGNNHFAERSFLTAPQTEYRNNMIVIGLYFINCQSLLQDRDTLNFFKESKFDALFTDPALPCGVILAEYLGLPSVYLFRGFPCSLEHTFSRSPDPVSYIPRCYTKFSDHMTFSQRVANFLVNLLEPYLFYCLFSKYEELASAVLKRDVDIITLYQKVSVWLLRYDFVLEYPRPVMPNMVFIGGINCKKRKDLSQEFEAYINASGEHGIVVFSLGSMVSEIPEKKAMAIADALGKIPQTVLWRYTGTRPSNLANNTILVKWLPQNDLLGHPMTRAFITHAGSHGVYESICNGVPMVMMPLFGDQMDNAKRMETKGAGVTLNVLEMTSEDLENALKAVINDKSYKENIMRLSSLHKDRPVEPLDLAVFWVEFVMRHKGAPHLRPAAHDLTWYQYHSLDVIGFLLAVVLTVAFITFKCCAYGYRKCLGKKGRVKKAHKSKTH

[6] = 400 mg oral dose; ref Manini et al., 2015; cited from earlier work
[7] = biological target: T5, UGT1A6 in human liver microsomes (Homo sapiens, UniProt P19224); assay: Inhibition of serotonin glucuronidation; conditions: HLM
T5 sequence (P19224 27-532): T4 sequence (P19224 27-532)

[8] = IC50, probe substrate acetaminophen
[9] = IC50,u (binding-corrected IC50), probe substrate acetaminophen
[10] = IC50, probe substrate serotonin
[11] = IC50,u (binding-corrected IC50), probe substrate serotonin

| Structure (SMILES) | fraction unbound (Nonspecific binding [1]) | fraction unbound (Nonspecific binding [2]) | inhibition in screening (in words) (UGT2B7; 10 or 100 µM) | fraction unbound (Nonspecific binding [3]) | IC50 [4, 8] [µM] | IC50 [4, 9] [µM] | inhibition vs control without cannabinoid (UGT2B10) [%] | inhibition vs control without cannabinoid (UGT2B7; 10 µM, zidovudine, screening) [%] | IC50 [5, 10] [µM] | IC50 [5, 11] [µM] | average plasma level [6] [µg/L] | IC50 [7, 10] [µM] | IC50 [7, 11] [µM] |
| --- | --- | --- | --- | --- | --- | --- | --- | --- | --- | --- | --- | --- | --- |
| CCCCCc1cc(O)c2c(c1)OC(C)(C)c1ccc(C)cc1-2 [CBN, cannabinol] | 0.12 ± 0.015 | 0.085 ± 0.005 | significant inhibition | 0.092 ± 0.006 | 21 ± 3.4 | 2.6 ± 0.41 | 47 |  |  |  |  |  |  |
| C=C(C)[C@@H]1CCC(C)=C[C@H]1c1c(O)cc(CCCCC)cc1O [CBD, cannabidiol] |  |  |  |  | 3.8 ± 0.82 | 0.24 ± 0.05 |  | 58 | 17 ± 3.7 | 1 ± 0.23 | 181 | 28 ± 6.5 | 1.4 ± 0.33 |

From publication PMC11022890 (Drug Metabolism and Disposition, 2021)
